Patent publication US20080200454A1, “CARBON-LINKED TETRAHYDRO-PYRAZOLO-PYRIDINE MODULATORS OF CATHEPSIN S” (priority 2007, published 2008)
Read-outs that look alike come from different tables or passages of the source.

Molecular target: Recombinant human cathepsin S (CatS) (Homo sapiens, UniProt P25774)
Experiment: Recombinant human cathepsin S (CatS) inhibition assay, fluorogenic substrate Z-Valine-Valine-Arginine-AMC;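 further: Baculovirus-expressed CatS in pH 5.0 sodium acetate buffer with DTT and NaCl, fluorescence read each minute over 20 min, inhibition derived from rate slope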

Sequence of Recombinant human cathepsin S (CatS) (P25774 115-331): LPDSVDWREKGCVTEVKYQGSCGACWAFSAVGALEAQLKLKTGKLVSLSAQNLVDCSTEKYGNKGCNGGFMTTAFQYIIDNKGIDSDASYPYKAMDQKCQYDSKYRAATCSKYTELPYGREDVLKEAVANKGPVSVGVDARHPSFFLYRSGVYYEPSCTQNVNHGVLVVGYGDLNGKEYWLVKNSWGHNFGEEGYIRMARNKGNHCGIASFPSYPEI

SMILES	IC50 (CatS IC50) [nM]	IC50 [nM]
C[C@H]1COCCN1CCCn1nc(-c2ccc(Cl)c(C#Cc3ccc(Cl)c(C(=O)NCCCO)c3)c2)c2c1CCN(C(=O)C(N)=O)C2 [Example 560, 5-{[5-(5-[Amino(oxo)acetyl]-1-{3-[(3S)-3-methylmorpholin-4-yl]propyl}-4,5,6,7-tetrahydro-1H-pyrazolo[4,3-c]pyridin-3-yl)-2-chlorophenyl]ethynyl}-2-chloro-N-(3-hydroxypropyl)benzamide]	20	–
C[C@H]1COCCN1CCCn1nc(-c2ccc(Cl)c(C#Cc3ccc(Cl)c(CNCC(C)(C)O)c3)c2)c2c1CCN(C(=O)C(N)=O)C2 [Example 561, 2-(3-{4-Chloro-3-[(4-chloro-3-{[(2-hydroxy-2-methylpropyl)amino]methyl}phenyl)ethynyl]phenyl}-1-{3-[(3S)-3-methylmorpholin-4-yl]propyl}-1,4,6,7-tetrahydro-5H-pyrazolo[4,3-c]pyridin-5-yl)-2-oxoacetamide]	–	30
CC(C)(O)CNCc1cc(C#Cc2cc(-c3nn(CCCN4CCSCC4)c4c3CN(C(=O)C(N)=O)CC4)ccc2Cl)ccc1Cl [Example 562, 2-[3-{4-Chloro-3-[(4-chloro-3-{[(2-hydroxy-2-methylpropyl)amino]methyl}phenyl)ethynyl]phenyl}-1-(3-thiomorpholin-4-ylpropyl)-1,4,6,7-tetrahydro-5H-pyrazolo[4,3-c]pyridin-5-yl]-2-oxoacetamide]	–	30
NC(=O)C(=O)N1CCc2c(c(-c3ccc(Cl)c(C#Cc4ccc(Cl)c(CN[C@@H](CO)c5ccccc5)c4)c3)nn2CCCN2CCSCC2)C1 [Example 563, 2-[3-(4-Chloro-3-{[4-chloro-3-({[(1R)-2-hydroxy-1-phenylethyl]amino}methyl)phenyl]ethynyl}phenyl)-1-(3-thiomorpholin-4-ylpropyl)-1,4,6,7-tetrahydro-5H-pyrazolo[4,3-c]pyridin-5-yl]-2-oxoacetamide]	–	30
NC(=O)C(=O)N1CCc2c(c(-c3ccc(Cl)c(C#Cc4ccc(Cl)c(C(=O)N[C@@H](CO)c5ccccc5)c4)c3)nn2CCCN2CCSCC2)C1 [Example 564, 5-[(5-{5-[Amino(oxo)acetyl]-1-(3-thiomorpholin-4-ylpropyl)-4,5,6,7-tetrahydro-1H-pyrazolo[4,3-c]pyridin-3-yl}-2-chlorophenyl)ethynyl]-2-chloro-N-[(1R)-2-hydroxy-1-phenylethyl]benzamide]	–	30
CNCCCNC(=O)c1cc(C#Cc2cc(-c3nn(CCCN4CCSCC4)c4c3CN(C(=O)C(N)=O)CC4)ccc2Cl)ccc1Cl [Example 565, 5-[(5-{5-[Amino(oxo)acetyl]-1-(3-thiomorpholin-4-ylpropyl)-4,5,6,7-tetrahydro-1H-pyrazolo[4,3-c]pyridin-3-yl}-2-chlorophenyl)ethynyl]-2-chloro-N-[3-(methylamino)propyl]benzamide]	20	–
CCNCc1cc(C#Cc2cc(-c3nn(CCCN4CCOC[C@@H]4C)c4c3CN(C(=O)C(N)=O)CC4)ccc2Cl)ccc1Cl [Example 566, 2-(3-[4-Chloro-3-({4-chloro-3-[(ethylamino)methyl]phenyl}ethynyl)phenyl]-1-{3-[(3S)-3-methylmorpholin-4-yl]propyl}-1,4,6,7-tetrahydro-5H-pyrazolo[4,3-c]pyridin-5-yl)-2-oxoacetamide]	–	20
NC(=O)C(=O)N1CCc2c(c(-c3ccc(Cl)c(C#Cc4ccc(Cl)c(C(=O)N5CCCC5)c4)c3)nn2CCCN2CCSCC2)C1 [Example 567, 2-[3-(4-Chloro-3-{[4-chloro-3-(pyrrolidin-1-ylcarbonyl)phenyl]ethynyl}phenyl)-1-(3-thiomorpholin-4-ylpropyl)-1,4,6,7-tetrahydro-5H-pyrazolo[4,3-c]pyridin-5-yl]-2-oxoacetamide]	160	–
NC(=O)C(=O)N1CCc2c(c(-c3ccc(Cl)c(C#Cc4ccc(Cl)c(C(=O)N5CCNCC5)c4)c3)nn2CCCN2CCSCC2)C1 [Example 568, 2-[3-(4-Chloro-3-{[4-chloro-3-(piperazin-1-ylcarbonyl)phenyl]ethynyl}phenyl)-1-(3-thiomorpholin-4-ylpropyl)-1,4,6,7-tetrahydro-5H-pyrazolo[4,3-c]pyridin-5-yl]-2-oxoacetamide]	140	–
NC(=O)C(=O)N1CCc2c(c(-c3ccc(Cl)c(C#Cc4ccc(Cl)c(C(=O)N5CCCNCC5)c4)c3)nn2CCCN2CCSCC2)C1 [Example 569, 2-[3-(4-Chloro-3-{[4-chloro-3-(1,4-diazepan-1-ylcarbonyl)phenyl]ethynyl}phenyl)-1-(3-thiomorpholin-4-ylpropyl)-1,4,6,7-tetrahydro-5H-pyrazolo[4,3-c]pyridin-5-yl]-2-oxoacetamide]	150	–
NC(=O)N1CCc2c(c(-c3ccc(Cl)c(C#Cc4ccc(Cl)c(C(=O)N5CCCC5)c4)c3)nn2CCCN2CCSCC2)C1 [Example 570, 3-(4-Chloro-3-{[4-chloro-3-(pyrrolidin-1-ylcarbonyl)phenyl]ethynyl}phenyl)-1-(3-thiomorpholin-4-ylpropyl)-1,4,6,7-tetrahydro-5H-pyrazolo[4,3-c]pyridine-5-carboxamide]	260	–
NC(=O)N1CCc2c(c(-c3ccc(Cl)c(C#Cc4ccc(Cl)c(C(=O)N5CCCNCC5)c4)c3)nn2CCCN2CCSCC2)C1 [Example 572, 3-(4-Chloro-3-{[4-chloro-3-(1,4-diazepan-1-ylcarbonyl)phenyl]ethynyl}phenyl)-1-(3-thiomorpholin-4-ylpropyl)-1,4,6,7-tetrahydro-5H-pyrazolo[4,3-c]pyridine-5-carboxamide]	170	–
C[C@H]1COCCN1CCCn1nc(-c2ccc(Cl)c(C#Cc3ccc(Cl)c(C(=O)N4CCCC4)c3)c2)c2c1CCN(C(=O)C(N)=O)C2 [Example 573, 2-[3-(4-Chloro-3-{[4-chloro-3-(pyrrolidin-1-ylcarbonyl)phenyl]ethynyl}phenyl)-1-{3-[(3S)-3-methylmorpholin-4-yl]propyl}-1,4,6,7-tetrahydro-5H-pyrazolo[4,3-c]pyridin-5-yl]-2-oxoacetamide]	190	–
C[C@H]1COCCN1CCCn1nc(-c2ccc(Cl)c(C#Cc3ccc(Cl)c(C(=O)N4CCNCC4)c3)c2)c2c1CCN(C(=O)C(N)=O)C2 [Example 574, 2-[3-(4-Chloro-3-{[4-chloro-3-(piperazin-1-ylcarbonyl)phenyl]ethynyl}phenyl)-1-{3-[(3S)-3-methylmorpholin-4-yl]propyl}-1,4,6,7-tetrahydro-5H-pyrazolo[4,3-c]pyridin-5-yl]-2-oxoacetamide]	140	–
C[C@H]1COCCN1CCCn1nc(-c2ccc(Cl)c(C#Cc3ccc(Cl)c(C(=O)N4CCCNCC4)c3)c2)c2c1CCN(C(=O)C(N)=O)C2 [Example 575, 2-[3-(4-Chloro-3-{[4-chloro-3-(1,4-diazepan-1-ylcarbonyl)phenyl]ethynyl}phenyl)-1-{3-[(3S)-3-methylmorpholin-4-yl]propyl}-1,4,6,7-tetrahydro-5H-pyrazolo[4,3-c]pyridin-5-yl]-2-oxoacetamide]	170	–
C[C@H]1COCCN1CCCn1nc(-c2ccc(Cl)c(C#Cc3ccc(Cl)c(C(=O)NCCCN(C)C(=O)OC(C)(C)C)c3)c2)c2c1CCN(C(=O)C(N)=O)C2 [Example 576, tert-Butyl (3-{[(5-{[5-(5-[amino(oxo)acetyl]-1-{3-[(3S)-3-methylmorpholin-4-yl]propyl}-4,5,6,7-tetrahydro-1H-pyrazolo[4,3-c]pyridin-3-yl)-2-chlorophenyl]ethynyl}-2-chlorophenyl)carbonyl]amino}propyl)methylcarbamate]	50	–
C[C@H]1COCCN1CCCn1nc(-c2ccc(Cl)c(C#Cc3ccc(Cl)c(C(=O)NCCCNC(=O)OC(C)(C)C)c3)c2)c2c1CCN(C(=O)C(N)=O)C2 [Example 577, tert-Butyl (3-{[(5-{[5-(5-[amino(oxo)acetyl]-1-{3-[(3S)-3-methylmorpholin-4-yl]propyl}-4,5,6,7-tetrahydro-1H-pyrazolo[4,3-c]pyridin-3-yl)-2-chlorophenyl]ethynyl}-2-chlorophenyl)carbonyl]amino}propyl)carbamate]	20	–
NC(=O)C(=O)N1CCc2c(c(-c3ccc(Cl)c(C#Cc4ccc(Cl)c(C(=O)NC[C@@H]5CCNC5)c4)c3)nn2CCCN2CCSCC2)C1 [Example 578, 5-[(5-{5-[Amino(oxo)acetyl]-1-(3-thiomorpholin-4-ylpropyl)-4,5,6,7-tetrahydro-1H-pyrazolo[4,3-c]pyridin-3-yl}-2-chlorophenyl)ethynyl]-2-chloro-N-[(3R)-pyrrolidin-3-ylmethyl]benzamide]	–	20
NC(=O)C(=O)N1CCc2c(c(-c3ccc(Cl)c(C#Cc4ccc(Cl)c(C(=O)NCC5CCCNC5)c4)c3)nn2CCCN2CCSCC2)C1 (stereo not shown) [Example 579, 5-[(5-{5-[Amino(oxo)acetyl]-1-(3-thiomorpholin-4-ylpropyl)-4,5,6,7-tetrahydro-1H-pyrazolo[4,3-c]pyridin-3-yl}-2-chlorophenyl)ethynyl]-2-chloro-N-(piperidin-3-ylmethyl)benzamide]	–	20
NC(=O)C(=O)N1CCc2c(c(-c3ccc(Cl)c(C#Cc4ccc(Cl)c(C(=O)NCC5CNCCO5)c4)c3)nn2CCCN2CCSCC2)C1 (stereo not shown) [Example 580, 5-[(5-{5-[Amino(oxo)acetyl]-1-(3-thiomorpholin-4-ylpropyl)-4,5,6,7-tetrahydro-1H-pyrazolo[4,3-c]pyridin-3-yl}-2-chlorophenyl)ethynyl]-2-chloro-N-(morpholin-2-ylmethyl)benzamide]	–	30
NC(=O)C(=O)N1CCc2c(c(-c3ccc(Cl)c(C#Cc4ccc(Cl)c(C(=O)NCCN5CCOCC5)c4)c3)nn2CCCN2CCSCC2)C1 [Example 581, 5-[(5-{5-[Amino(oxo)acetyl]-1-(3-thiomorpholin-4-ylpropyl)-4,5,6,7-tetrahydro-1H-pyrazolo[4,3-c]pyridin-3-yl}-2-chlorophenyl)ethynyl]-2-chloro-N-(2-morpholin-4-ylethyl)benzamide]	–	30
NC(=O)N1CCc2c(c(-c3ccc(Cl)c(C#Cc4ccc(Cl)c(C(=O)NC[C@@H]5CCNC5)c4)c3)nn2CCCN2CCSCC2)C1 [Example 582, 3-{4-Chloro-3-[(4-chloro-3-{[(3R)-pyrrolidin-3-ylmethyl]carbamoyl}phenyl)ethynyl]phenyl}-1-(3-thiomorpholin-4-ylpropyl)-1,4,6,7-tetrahydro-5H-pyrazolo[4,3-c]pyridine-5-carboxamide]	–	40
